The target in assay [1] is T1, GST-JAK2(808-1132) (Homo sapiens, UniProt O60674).
T1 construct: GST-JAK2(808-1132); purchased Invitrogen (Carlsbad, USA) #4288
Put plainly: JAK2 kinase assay (Caliper mobility shift, LabChip 3000). It counts as biochemical. An outline of the steps:
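Eight-point compound series (final 10–0.003 μM) tested on purchased GST-JAK2 kinase domain (808-1132). Peptide FITC-JAK3tide plus ATP reacted 60 min, 30 °C, then quenched with EDTA; turnover from charge-based separation of substrate and product.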

In assay [2] the test system is JAK1/JAK2-dependent nuclear translocation of STAT1-GFP in HT1080 fibrosarcoma cells. Put plainly: STAT1 nuclear translocation assay (Cellomics), IFN-γ stimulated HT1080 STAT1-GFP cells. Particulars: Homo sapiens, HT-1080, STAT1 translocation pathway. Type of assay: cell-based. An outline of the steps: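 IC50 derived from percent nuclear STAT1-GFP translocation, computed from nuclear minus cytoplasmic GFP intensity against untreated baseline and DMSO-stimulated control. Stable HT1080 STAT1-GFP cells received compound (0.003–10 μM, 0.1% DMSO) 30 min ahead of a 2 h 100 ng/ml IFN-γ stimulus, then fixation and Hoechst nuclear masking.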

pIC50: −log10 of the molar value.

T1 sequence (O60674 808-1132): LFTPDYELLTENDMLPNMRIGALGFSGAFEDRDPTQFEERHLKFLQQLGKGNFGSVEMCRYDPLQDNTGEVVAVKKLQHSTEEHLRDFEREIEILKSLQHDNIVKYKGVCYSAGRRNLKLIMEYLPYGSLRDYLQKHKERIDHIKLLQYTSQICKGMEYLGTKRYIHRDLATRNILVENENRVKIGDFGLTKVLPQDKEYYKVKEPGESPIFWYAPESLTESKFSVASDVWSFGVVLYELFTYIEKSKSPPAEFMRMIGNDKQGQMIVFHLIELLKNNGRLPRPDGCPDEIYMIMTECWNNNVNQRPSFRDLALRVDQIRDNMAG

For the molecule `CCN1CCN(Cc2ccc(Nc3ncc4ccn(-c5cc(F)c(CN6CCOCC6)c(F)c5)c4n3)cc2)CC1` [Example 196, [7-(3,5-Difluoro-4-morpholin-4-ylmethyl-phenyl)-7H-pyrrolo[2,3-d]pyrimidin-2-yl]-[4-(4-ethyl-piperazin-1-ylmethyl)-phenyl]-amine], the pIC50 (in general, the negative decadic logarithm of the IC50, by convention in mol/L) is over 8.52 in assay [1] and 6.75 in assay [2].
The corresponding values for `CCN1CCN(Cc2c(F)cc(-n3ccc4cnc(Nc5ccc(C)c(Cl)c5)nc43)cc2F)CC1` [Example 130, (3-Chloro-4-methyl-phenyl)-{7-[4-(4-ethyl-piperazin-1-ylmethyl)-3,5-difluoro-phenyl]-7H-pyrrolo[2,3-d]pyrimidin-2-yl}-amine] are 6.94 and 5.08.
The corresponding values for `CCN1CCN(Cc2ccc(Nc3ncc4ccn(-c5cc(F)c(CN6CCS(=O)(=O)CC6)c(F)c5)c4n3)cc2)CC1` [Example 188, {7-[4-(1,1-Dioxido-thiomorpholin-4-ylmethyl)-3,5-difluoro-phenyl]-7H-pyrrolo[2,3-d]pyrimidin-2-yl}-[4-(4-ethyl-piperazin-1-ylmethyl)-phenyl]-amine] are over 8.52 and 7.22.
The matching figures for `Cc1cc(Nc2ncc3ccn(-c4cc(F)c(CN5CCS(=O)(=O)CC5)c(F)c4)c3n2)ccc1F` [Example 137, {7-[4-(1,1-Dioxido-thiomorpholin-4-ylmethyl)-3,5-difluoro-phenyl]-7H-pyrrolo[2,3-d]pyrimidin-2-yl}-(4-fluoro-3-methyl-phenyl)-amin]: 8.48 and 6.82.
Turning to `CN1CCN(C(=O)c2cc(Nc3ncc4ccn(-c5ccc(S(C)(=O)=O)cc5)c4n3)ccc2F)CC1` [Example 76, {2-Fluoro-5-[7-(4-methanesulfonyl-phenyl)-7H-pyrrolo[2,3-d]pyrimidin-2-ylamino]-phenyl}-(4-methyl-piperazin-1-yl)-methanone], the results for the pIC50 in assay [1] and in assay [2] were 7.42 and 6.03, respectively.
`COc1cc(Nc2ncc3ccn(-c4ccc(C(=O)N5CCOCC5)c(C)c4)c3n2)ccc1F` [Example 296, {4-[2-(4-Fluoro-3-methoxy-phenylamino)-pyrrolo[2,3-d]pyrimidin-7-yl]-2-methyl-phenyl}-morpholin-4-yl-methanone]: the pIC50 in assay [1] was over 8.52; in assay [2], 5.96.
For the molecule `CC(C)Oc1ccc(Nc2ncc3ccn(-c4ccc(C(=O)N5CCOCC5)c(F)c4)c3n2)cc1` [Example 98, {2-Fluoro-4-[2-(4-isopropoxy-phenylamino)-pyrrolo[2,3-d]pyrimidin-7-yl]-phenyl}-morpholin-4-yl-methanone], the pIC50 in assay [1] was 8.25; in assay [2], 6.24.
The matching figures for `Cc1ccc(Nc2ncc3ccn(-c4cc(F)c(CN5CCNC(=O)C5)c(F)c4)c3n2)cc1CN1CCN(C)CC1` [Example 343, 4-(2,6-Difluoro-4-{2-[4-methyl-3-(4-methyl-piperazin-1-ylmethyl)-phenylamino]-pyrrolo[2,3-d]pyrimidin-7-yl}-benzyl)-piperazin-2-one]: at least 8.52 and 6.82.
The matching figures for `CC(=O)N1CCN(Cc2c(F)cc(-n3ccc4cnc(Nc5ccc(F)c(C)c5)nc43)cc2F)CC1` [Example 133, 1-(4-{2,6-Difluoro-4-[2-(4-fluoro-3-methyl-phenylamino)-pyrrolo[2,3-d]pyrimidin-7-yl]-benzyl}-piperazin-1-yl)-ethanone]: 8.15 and 6.24.
Take `CC(C)Oc1ccc(Nc2ncc3ccn(-c4ccc(C5(C(=O)N6CCOCC6)CC5)cc4)c3n2)cc1` [Example 84, (1-{4-[2-(4-Isopropoxy-phenylamino)-pyrrolo[2,3-d]pyrimidin-7-yl]-phenyl}-cyclopropyl)-morpholin-4-yl-methanone]: the pIC50 in assay [1] is over 8.52; in assay [2], 6.56.

The record behind these values is patent US8420657B2 (Novartis AG, priority 2008, dated 2013).
